Assay results reported in PMC9315041, “Conformationally Constrained Sialyl Analogues as New Potential Binders of h‐CD22” (Chembiochem, 2022).

Columns and labels:
h-CD22 (Siglec-2) [1] = target: T1, h-CD22 (Siglec-2) (Homo sapiens, UniProt P20273); assay: intrinsic tryptophan fluorescence titration; STD NMR and tr-NOESY; type: binding
T1 sequence (P20273 20-687 limits assumed): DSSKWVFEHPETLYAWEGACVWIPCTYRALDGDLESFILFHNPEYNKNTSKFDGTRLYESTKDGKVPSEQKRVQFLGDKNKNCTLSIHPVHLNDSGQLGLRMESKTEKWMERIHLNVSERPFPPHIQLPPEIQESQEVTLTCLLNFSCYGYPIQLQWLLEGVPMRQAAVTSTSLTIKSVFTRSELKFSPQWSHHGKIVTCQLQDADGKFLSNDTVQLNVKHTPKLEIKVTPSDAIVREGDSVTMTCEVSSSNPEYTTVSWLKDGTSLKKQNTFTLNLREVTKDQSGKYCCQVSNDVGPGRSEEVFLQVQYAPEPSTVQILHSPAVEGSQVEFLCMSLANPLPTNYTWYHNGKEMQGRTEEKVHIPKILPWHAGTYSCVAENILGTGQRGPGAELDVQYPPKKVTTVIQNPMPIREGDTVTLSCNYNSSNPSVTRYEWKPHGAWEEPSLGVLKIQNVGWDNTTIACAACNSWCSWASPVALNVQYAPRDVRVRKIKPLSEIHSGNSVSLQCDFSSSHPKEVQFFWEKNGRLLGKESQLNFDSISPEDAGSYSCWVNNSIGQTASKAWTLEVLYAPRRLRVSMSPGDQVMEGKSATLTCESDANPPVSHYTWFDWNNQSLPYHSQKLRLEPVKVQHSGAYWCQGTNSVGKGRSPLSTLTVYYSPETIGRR
Source text: intrinsic tryptophan fluorescence titration; STD NMR and tr-NOESY on h-CD22 (Siglec-2) | thus proving the complex formation.

h-CD22 (Siglec-2) [2] = target: T1, h-CD22 (Siglec-2); assay: SPR (CD22 immobilized on protein A chip); STD NMR; type: binding

Row | SMILES | Kd (h-CD22 (Siglec-2) [1]) [µM] | Kd (h-CD22 (Siglec-2) [2]) [µM]
1 | CC(=O)N[C@H]1[C@H]([C@H](O)[C@H](O)CO)OC(OC[C@H]2O[C@@H]3OC4=C(S[C@@H]3[C@@H](O)[C@H]2O)C(=O)N[C@H](C(=O)O)C4)(C(=O)O)C[C@@H]1O (some centres unmarked) [compound 1, Sialyl-TnThr analogue] | 2 ± 0.1 | 
2 | CC(=O)N[C@H]1[C@H]([C@H](O)[C@H](O)CNC(=O)c2ccc(-c3ccccc3)cc2)OC(OC[C@H]2O[C@@H]3OC4=C(S[C@@H]3[C@@H](O)[C@H]2O)C(=O)N[C@H](C(=O)O)C4)(C(=O)O)C[C@@H]1O (some centres unmarked) [compound 2, sialo-derivative 2] |  | 13.5 ± 2.6
